Experimental data from patent US11753407B2, “Compounds for treating spinal muscular atrophy” (PTC Therapeutics, Inc., priority 2012, dated 2023).

How the values were obtained:
[1] = system: Smn protein in SMA patient fibroblast cells (GM03813); assay: Smn protein assay in cultured cells (SMN HTRF); format: cell-based, human; conditions: SMA patient fibroblast cells, 48 hours; for EC1.5x for Smn protein expression: 7-point concentration curve, SMN HTRF, concentration producing 1.5 times Smn protein vs DMSO vehicle control; for maximum fold (Fold) increase of Smn protein: 7-point concentration data, fold relative to vehicle control
Outline: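 Fibroblasts, SMA patient; 5,000 cells/well; 7-pt curve, 3.16-fold serial dilution; 48 h, 37 °C, 5% CO2; RIPA lysis 1 h RT; anti-SMN d2 + kryptate overnight RT; HTRF 665/620 nm; fold vs DMSO; EC1.5×, max fold.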

[2] = system: SMN2 minigene mRNA (SMN2-A minigene) in HEK293H cells; assay: SMN2 minigene mRNA splicing RT-qPCR assay in cultured cells; format: cell-based, human; conditions: Homo sapiens, HEK293-H; concentration increasing full length SMN2 mRNA 1.5-fold relative to vehicle-treated cells; HEK293H cells with SMN2-A minigene, 24 hours, 7-point concentration data; read-out: EC1.5x for production of full length SMN2 mRNA
Outline: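 Stable SMN2-A minigene HEK293H; cpd 7-pt 3.16-fold series, 200× in DMSO, 24 h, 37 °C, n=2. Lysates → multiplex RT-qPCR (minigene FL + GAPDH), efficiency-corrected ΔΔCt vs vehicle. EC1.5× = 1.5-fold FL mRNA gain.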

| SMILES | EC1.5x for Smn protein expression [1] | maximum fold (Fold) increase of Smn protein [1] | EC (1.5-fold increase) [2] [µM] |
| --- | --- | --- | --- |
| Cc1nc2c(F)cc(-c3cc(=O)n4cc(N5CCN(C)CC5)ccc4n3)cc2o1 [Compound 308, 2-(4-fluoro-2-methyl-1,3-benzoxazol-6-yl)-7-(4-methylpiperazin-1-yl)-4H-pyrido[1,2-a]pyrimidin-4-one] | **** (an EC1.5x≤0.3 μM is indicated by four stars (****)) | ***** (a fold increase >1.65 is indicated by five stars (*****)) | < 0.1 |
| COc1ccc(-c2cc(=O)n3cc(C4C[C@H]5CC[C@@H](C4)N5C)ccc3n2)cc1OC (stereo partly drawn) [Compound 320, 2-(3,4-dimethoxyphenyl)-7-[(1R,5S)-8-methyl-8-azabicyclo[3.2.1]oct-3-yl]-4H-pyrido[1,2-a]pyrimidin-4-one] | ** (an EC1.5× between >1 μM and ≤3 μM is indicated by two stars (**)) | **** (a fold increase between >1.5 and ≤1.65 is indicated by four stars (****)) | 0.3 to 1 |
| COc1ccc(-c2cc(=O)n3cc(N4CCNC[C@H]4C)ccc3n2)cc1OC [Compound 321, 2-(3,4-dimethoxyphenyl)-7-[(2R)-2-methylpiperazin-1-yl]-4H-pyrido[1,2-a]pyrimidin-4-one] |  | *** (a fold increase between >1.35 and ≤1.5 is indicated by three stars (***)) | 1 to 3 |
| Cc1nc2ccc(-c3cc(=O)n4cc(N5CCN(C)CC5)ccc4c3)cc2o1 [Compound 323, 2-(2-methyl-1,3-benzoxazol-6-yl)-7-(4-methylpiperazin-1-yl)-4H-quinolizin-4-one] | ** (an EC1.5× between >1 μM and ≤3 μM is indicated by two stars (**)) | *** (a fold increase between >1.35 and ≤1.5 is indicated by three stars (***)) | 0.1 to 0.3 |
| Cc1cn2nc(-c3cc(=O)n4cc(N5CCN[C@H](C)C5)ccc4n3)cc2c(C)n1 [Compound 335, 2-(4,6-dimethylpyrazolo[1,5-a]pyrazin-2-yl)-7-[(3R)-3-methylpiperazin-1-yl]-4H-pyrido[1,2-a]pyrimidin-4-one] | **** (an EC1.5x≤0.3 μM is indicated by four stars (****)) | ***** (a fold increase >1.65 is indicated by five stars (*****)) | < 0.1 |
| CCN1CCN(c2ccc3nc(-c4cc5c(C)nc(C)cn5n4)cc(=O)n3c2)C[C@H]1C [Compound 343, 2-(4,6-dimethylpyrazolo[1,5-a]pyrazin-2-yl)-7-[(3R)-4-ethyl-3-methylpiperazin-1-yl]-4H-pyrido[1,2-a]pyrimidin-4-one] | **** (an EC1.5x≤0.3 μM is indicated by four stars (****)) | ***** (a fold increase >1.65 is indicated by five stars (*****)) | < 0.1 |
| Cc1nc2cc(-c3cc(=O)n4cc(N5C[C@H]6CNC[C@H]6C5)ccc4n3)ccc2s1 [Compound 349, 7-[(3aR,6aS)-hexahydropyrrolo[3,4-c]pyrrol-2(1H)-yl]-2-(2-methyl-1,3-benzothiazol-5-yl)-4H-pyrido[1,2-a]pyrimidin-4-one] | ** (an EC1.5× between >1 μM and ≤3 μM is indicated by two stars (**)) | *** (a fold increase between >1.35 and ≤1.5 is indicated by three stars (***)) | < 0.1 |
| Cc1cn2nc(-c3cc(=O)n4cc(C5=CCN(C6CC6)CC5)ccc4n3)cc2c(C)n1 [Compound 354, 7-(1-cyclopropyl-1,2,3,6-tetrahydropyridin-4-yl)-2-(4,6-dimethylpyrazolo[1,5-a]pyrazin-2-yl)-4H-pyrido[1,2-a]pyrimidin-4-one] | *** (an EC1.5× between >0.3 μM and ≤1 μM is indicated by three stars (***)) | **** (a fold increase between >1.5 and ≤1.65 is indicated by four stars (****)) | < 0.1 |
| Cc1cn2nc(-c3cc(=O)n4cc(C5=CCN(C6COC6)CC5)ccc4n3)cc2c(C)n1 [Compound 357, 2-(4,6-dimethylpyrazolo[1,5-a]pyrazin-2-yl)-7-[1-(oxetan-3-yl)-1,2,3,6-tetrahydropyridin-4-yl]-4H-pyrido[1,2-a]pyrimidin-4-one] | *** (an EC1.5× between >0.3 μM and ≤1 μM is indicated by three stars (***)) | **** (a fold increase between >1.5 and ≤1.65 is indicated by four stars (****)) | 0.1 to 0.3 |
| CNC1CCN(c2cc(C)c3nc(-c4ccc(OC)c(OC)c4)cc(=O)n3c2)CC1 [Compound 358, 2-(3,4-dimethoxyphenyl)-9-methyl-7-[4-(methylamino)piperidin-1-yl]-4H-pyrido[1,2-a]pyrimidin-4-one] | ** (an EC1.5× between >1 μM and ≤3 μM is indicated by two stars (**)) | *** (a fold increase between >1.35 and ≤1.5 is indicated by three stars (***)) | < 0.1 |
| CCNC1CCN(c2cc(C)c3nc(-c4ccc(OC)c(OC)c4)cc(=O)n3c2)CC1 [Compound 359] | ** (an EC1.5× between >1 μM and ≤3 μM is indicated by two stars (**)) | *** (a fold increase between >1.35 and ≤1.5 is indicated by three stars (***)) | < 0.1 |
| COc1ccc(-c2cc(=O)n3cc(N4CCC(NC(C)C)CC4)ccc3n2)cc1OC [Compound 361, 2-(3,4-dimethoxyphenyl)-7-[4-(propan-2-ylamino)piperidin-1-yl]-4H-pyrido[1,2-a]pyrimidin-4-one] |  | *** (a fold increase between >1.35 and ≤1.5 is indicated by three stars (***)) | 0.1 to 0.3 |
| Cc1cn2cc(-c3ccc4nc(C5=CCNCC5)cc(=O)n4c3)cc(F)c2n1 [Compound 372, 7-(8-fluoro-2-methylimidazo[1,2-a]pyridin-6-yl)-2-(1,2,3,6-tetrahydropyridin-4-yl)-4H-pyrido[1,2-a]pyrimidin-4-one] | **** (an EC1.5x≤0.3 μM is indicated by four stars (****)) | ***** (a fold increase >1.65 is indicated by five stars (*****)) | < 0.1 |
| CCN1CC=C(c2cc(C)c3nc(-c4ccc(OC)c(OC)c4)cc(=O)n3c2)CC1 [Compound 388, 2-(3,4-dimethoxyphenyl)-7-(1-ethyl-1,2,3,6-tetrahydropyridin-4-yl)-9-methyl-4H-pyrido[1,2-a]pyrimidin-4-one] |  | *** (a fold increase between >1.35 and ≤1.5 is indicated by three stars (***)) | < 0.1 |
| COc1ccc(-c2cc(=O)n3cc(N4CCN5CCC[C@@H]5C4)cc(C)c3n2)cc1OC [Compound 414, 2-(3,4-dimethoxyphenyl)-7-[(8aR)-hexahydropyrrolo[1,2-a]pyrazin-2(1H)-yl]-9-methyl-4H-pyrido[1,2-a]pyrimidin-4-one] | *** (an EC1.5× between >0.3 μM and ≤1 μM is indicated by three stars (***)) | ***** (a fold increase >1.65 is indicated by five stars (*****)) | < 0.1 |
| Cc1nc2ccc(-c3cc(=O)n4cc(C5=CCNCC5)ncc4n3)cc2o1.Cl [Compound 421, 2-(2-methyl-1,3-benzoxazol-6-yl)-7-(1,2,3,6-tetrahydropyridin-4-yl)-4H-pyrazino[1,2-a]pyrimidin-4-one hydrochloride (1:1)] |  | *** (a fold increase between >1.35 and ≤1.5 is indicated by three stars (***)) | < 0.1 |
| Cc1cn2nc(-c3cc(=O)n4cc(C5CCNCC5)ccc4n3)cc2c(C)n1 [Compound 452, 2-(4,6-dimethylpyrazolo[1,5-a]pyrazin-2-yl)-7-(piperidin-4-yl)-4H-pyrido[1,2-a]pyrimidin-4-one] | **** (an EC1.5x≤0.3 μM is indicated by four stars (****)) | ***** (a fold increase >1.65 is indicated by five stars (*****)) | < 0.1 |
| Cn1ncc2cc(-c3cc(=O)n4cc(C5=CCN(CCO)CC5)ccc4n3)ccc21 [Compound 471, 7-[1-(2-hydroxyethyl)-1,2,3,6-tetrahydropyridin-4-yl]-2-(1-methyl-1H-indazol-5-yl)-4H-pyrido[1,2-a]pyrimidin-4-one] | **** (an EC1.5x≤0.3 μM is indicated by four stars (****)) | ***** (a fold increase >1.65 is indicated by five stars (*****)) | < 0.1 |
| Cc1cn2nc(-c3cc(=O)n4cc(C5=CCN(C)CC5)cc(C)c4n3)cc2c(C)n1 [Compound 481, 2-(4,6-dimethylpyrazolo[1,5-a]pyrazin-2-yl)-9-methyl-7-(1-methyl-1,2,3,6-tetrahydropyridin-4-yl)-4H-pyrido[1,2-a]pyrimidin-4-one] | **** (an EC1.5x≤0.3 μM is indicated by four stars (****)) | **** (a fold increase between >1.5 and ≤1.65 is indicated by four stars (****)) | < 0.1 |
| CCN1CC=C(c2cc(C)c3nc(-c4cc5c(C)nc(C)cn5n4)cc(=O)n3c2)CC1 [Compound 482, 2-(4,6-dimethylpyrazolo[1,5-a]pyrazin-2-yl)-7-(1-ethyl-1,2,3,6-tetrahydropyridin-4-yl)-9-methyl-4H-pyrido[1,2-a]pyrimidin-4-one] | * (An EC1.5× for Smn protein expression between >3 μM and ≤10 μM is indicated by one star (*)) | *** (a fold increase between >1.35 and ≤1.5 is indicated by three stars (***)) | < 0.1 |
